Assay results reported in PubChem BioAssay (NCI).
Values joined by “and” are separate entries in the source; they are usually repeats but may differ in a detail not shown here. Equal values may be shown once.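 Test compounds were applied to cells in 96-well plates for 48 hours at 5 doses. Abbreviation: GI50, concentration required for 50% inhibition of growth. TGI denotes the concentration required for complete inhibition of growth.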

Experiments:
Experiment in all cases: inhibition of tumour cell growth, NCI panel, 48 h
A498 renal = tested on: A498 renal
DU-145 prostate = tested on: DU-145 prostate
IGROV1 ovarian = tested on: IGROV1 ovarian
M14 melanoma = tested on: M14 melanoma
MDA-N = tested on: MDA-N
MOLT-4 leukemia = tested on: MOLT-4 leukemia
OVCAR-3 ovarian = tested on: OVCAR-3 ovarian
SF-539 CNS = tested on: SF-539 CNS
SK-MEL-2 melanoma = tested on: SK-MEL-2 melanoma
SK-OV-3 ovarian = tested on: SK-OV-3 ovarian
SR leukemia = tested on: SR leukemia
UACC-257 melanoma = tested on: UACC-257 melanoma
UACC-62 melanoma = tested on: UACC-62 melanoma

Structure (SMILES)	TGI (A498 renal)	TGI (DU-145 prostate)	TGI (IGROV1 ovarian)	TGI (M14 melanoma)	TGI (MDA-N)	TGI (MOLT-4 leukemia)	TGI (OVCAR-3 ovarian)	TGI (SF-539 CNS)	TGI (SK-MEL-2 melanoma)	TGI (SK-OV-3 ovarian)	TGI (SR leukemia)	TGI (UACC-257 melanoma)	TGI (UACC-62 melanoma)	GI50 (IGROV1 ovarian)	GI50 (OVCAR-3 ovarian)	GI50 (SK-OV-3 ovarian)	GI50 (UACC-257 melanoma)	GI50 (UACC-62 melanoma)
COC(=O)c1cc(S(=O)(=O)NC2=NCC(C)NN2)c(S)cc1Cl (centres undefined)	72.8 µM	> 100 µM	> 100 µM	> 100 µM	> 100 µM	> 100 µM	> 100 µM	> 100 µM	84.5 µM	> 100 µM	> 100 µM	> 100 µM	> 100 µM					
COC(=O)[C@H](Cc1ccccc1)NC(=O)c1ccc(CNC(=O)/C=C/c2csc(-c3ccccc3)n2)cc1	34.5 µM	> 74.6 µM	> 23.2 µM	3.81 µM	15.5 µM	6.68 µM	26.3 µM	13 µM	9.1 µM	> 65.5 µM	> 21.5 µM	7.72 µM	31.1 µM					
Cc1nc2c(sc3nc4c(cc32)CCC4)c(=O)o1	> 100 µM	> 100 µM	59.1 µM	> 100 µM	> 100 µM	> 100 µM	> 100 µM	> 70.8 µM	> 100 µM	> 100 µM	> 100 µM	> 100 µM	> 100 µM					
CCN(/C=C1/C(=O)C(c2ccccc2)N(c2ccccc2)C1=O)CC (centres undefined)	> 10 µM	> 10 µM	> 10 µM	> 10 µM	> 10 µM	> 10 µM	> 10 µM	> 10 µM	> 10 µM	> 10 µM	> 10 µM	> 10 µM	> 10 µM					
C[C@@H](CC(=O)OCc1ccccc1)OC1OC(COC(=O)C(C)(C)C)C(OC(=O)C(C)(C)C)C(OC(=O)C(C)(C)C)C1OC(=O)C(C)(C)C (some centres undefined)	> 100 µM	> 100 µM	> 100 µM	> 100 µM	> 100 µM	> 100 µM	> 100 µM	> 100 µM	> 100 µM	> 100 µM	> 100 µM	> 100 µM	> 100 µM					
O=[N+]([O-])c1cccc2nc3ccccc3c(NCCCCCNc3c4ccccc4nc4cccc([N+](=O)[O-])c34)c12	0.248 µM	0.0929 µM	0.506 µM and 1.2 µM	0.198 µM and 0.024 µM	0.191 µM	0.244 µM	0.262 µM and 0.054 µM	0.135 µM and 0.0297 µM	0.285 µM	1.25 µM and 1.14 µM	0.0202 µM	0.393 µM and 1.23 µM	0.303 µM and 0.307 µM	0.127 µM	0.0135 µM	0.08 µM	0.0619 µM	0.0351 µM
C=C1CC[C@@H](CCC2CCC3(OC2)O[C@]2(O)CC[C@@]3(C)OC2(C)C)C(C)(C)[C@H]1C/C=C1\CCOC1=O (some centres undefined)	34.9 µM	> 100 µM	> 100 µM	> 100 µM	> 100 µM	23.9 µM	54.8 µM	> 32.4 µM	48.3 µM	> 100 µM	> 52.2 µM	> 67.6 µM	> 100 µM					
N#Cc1c(NC(=O)C(F)(F)F)sc2c3c(=O)c4ccccc4c(=O)c=3oc3ccccc3c12	> 72.3 µM	28.7 µM	48.7 µM	> 61.7 µM	36.5 µM	34.3 µM	> 80.1 µM	32.1 µM	54.7 µM	77.2 µM	13.5 µM	35.7 µM	26 µM					
Cc1c(C)c2c(c(N)c1C#N)C(=O)N(Cc1ccc(S(N)(=O)=O)cc1)C2=O	> 70.6 µM	> 75.8 µM	> 59.7 µM	> 73.6 µM	> 100 µM	> 100 µM	> 63.2 µM	> 60.1 µM	> 100 µM	> 100 µM	> 100 µM	> 100 µM	> 100 µM					
Cc1ccc(OCC2OC(n3cnc4c(Cl)nc(Nc5cc(Cl)cc(Cl)c5)nc43)CC2Oc2ccc(C)cc2)cc1 (centres undefined)	> 100 µM	> 100 µM	> 100 µM	> 100 µM	> 100 µM	> 100 µM	> 100 µM	> 100 µM	> 100 µM	> 100 µM	> 100 µM	> 100 µM	> 100 µM					
Cc1c(C)c(S(=O)(=O)N(CCCCN)OCCCN)c(C)c2c1OC(C)(C)CC2	41.6 µM	57.7 µM	20.2 µM	98.3 µM	> 100 µM	75.6 µM	30.6 µM	64.2 µM	24.9 µM	33.8 µM	> 100 µM	61.4 µM	72.2 µM					
COC1(OC)CCc2c(sc3ncnc(Nc4cccc(Br)c4)c23)C1	> 100 µM	53.9 µM	> 100 µM	> 100 µM	> 100 µM	41.5 µM	> 100 µM	> 100 µM	> 100 µM	> 100 µM	> 100 µM	> 100 µM	> 100 µM					
[B]C(=O)NC(CC(C)C)C(=O)NCC(=O)NC1c2ccsc2C(=O)C1O (centres undefined) (tested in a mixture with another compound)	> 100 µM	> 100 µM	> 100 µM	> 100 µM	> 100 µM	> 100 µM	> 100 µM	> 100 µM	> 100 µM	> 100 µM	> 100 µM	> 100 µM	> 100 µM					
